Test results from patent US6150359A, “Naphthyridinones for inhibiting protein tyrosine kinase and cell cycle kinase mediated cellular proliferation” (Warner-Lambert Company, priority 2000, dated 2000).

What was measured:
c-Src = biological target: T1, c-Src (Homo sapiens, UniProt P12931); assay: c-Src kinase assay, 32P incorporation into polyglutamate-tyrosine; type: biochemical; conditions: 5 μM ATP
T1 construct: made in house; host or cells: baculovirus infected insect cells
Description: Other Kinases. c-Src kinase is purified from baculovirus infected insect cell lysates using an antipeptide monoclonal antibody directed against the N-terminal 2-17 amino acids as described previously by Fry, et al., Anticancer Drug Design, 1994;9:331-351. Protein kinase C (PKC.) is obtained as a rat brain preparation from Promega.
c-Src. The antibody, covalently linked to 0.65-μm latex beads, is added to a suspension of insect cell lysis buffer comprised of 150 mM NaCl, 50 mM Tris pH 7.5, 1 mM DTT, 1% NP-40, 2 mM EGTA, 1 mM sodium vanadate, 1 mM PMSF, 1 μg/mL each of leupeptin, pepstatin, and aprotinin. Insect cell lysate containing the c-Src protein is incubated with these beads for 3 to 4 hours at 4° C. with rotation. At the end of the lysate incubation, the beads are rinsed three times in lysis buffer, resuspended in lysis buffer containing 10% glycerol, and frozen. These latex beads are thawed, rinsed three times in assay buffer which is comprised of 40 mM tris pH 7.5, 5 mM magnesium chloride, and suspended in the same buffer. In a Millipore 96-well plate with a 0.65 μm polyvinylidine membrane bottom are added the reaction components: 10-μL c-Src beads, 10 μL of 2.5 mg/mL polyglutamate-tyrosine substrate, 5 μM ATP containing 0.2 μCi labeled ^32 P-ATP, 5 μL DMSO containing inhibitors or as a solvent control, and buffer to make the final volume 125 μL. The reaction is started at room temperature by addition of the ATP and quenched 10 minutes later by the addition of 125 μL of 30% TCA, 0.1 M sodium pyrophosphate for 15 minutes on ice. The plate is then filtered and the wells washed with two 250-μL aliquots of 15% TCA, 0.1 M pyrophosphate. The filters are punched, counted in a liquid scintillation counter, and the data examined for inhibitory activity in comparison to a known inhibitor such as erbstatin. The method is described more fully in J. Med. Chem., 1994;37:598-609.

[1] = biological target: T2, EGFr (Human EGF receptor tyrosine kinase) (Homo sapiens, UniProt P00533); assay: EGFr tyrosine kinase assay; type: biochemical; conditions: 10 μM ATP
T2 construct: Human EGF receptor tyrosine kinase is isolated from A431 human epidermoid carcinoma cells; endogenous in cells; host or cells: A431 human epidermoid carcinoma cells (detergent lysate, Q Sepharose fractions)
Description: Epidermal Growth Factor Receptor (EGFr). Human EGF receptor tyrosine kinase is isolated from A431 human epidermoid carcinoma cells by the following method. Cells were grown in roller bottles in 50% Dulbecco's Modified Eagle medium and 50% HAM F-12 nutrient media (Gibco) containing 10% fetal calf serum. Approximately 10^9 cells are lysed in two volumes of buffer containing 20 mM 2-(4N-[2-[…]]piperazin-1-yl)ethanesulfonic acid (Hepes), pH 7.4, 5 mM ethylene glycol bis(2-aminoethyl ether) N,N,N',N'-tetraacetic acid (EGTA), 1% Triton X-100, 10% glycerol, 0.1 mM sodium orthovanadate, 5 mM sodium fluoride, 4 mM pyrophosphate, 4 mM benzamide, 1 mM dithiothreitol (DTT), 80 μg/mL aprotinin, 40 μg/mL leupeptin, and 1 mM phenylmethylsulfonyl fluoride (PMSF). After centrifugation at 25,000×g for 10 minutes, the supernatant is applied to a fast Q sepharose column (Pharmacia) and eluted with a linear gradient from 0.1 M NaCl to 0.4 M NaCl in 50 mM Hepes, 10% glycerol, pH 7.4. Enzyme active fractions are pooled, divided into aliquots, and stored at -100° C.
EGFr. Enzyme assays for IC50 determinations are performed in 96-well filter plates (Millipore MADVN6550). The total volume is 0.1 mL containing 20 mM Hepes, pH 7.4, 50 μM sodium vanadate, 40 mM magnesium chloride, 10 μM ATP containing 0.5 μCi of [^32 P]ATP, 20 μg of polyglutamic acid/tyrosine (Sigma Chemical Co., St. Louis, Mo.), 10 ng of EGF receptor tyrosine kinase and appropriate dilutions of inhibitor. All components except the ATP are added to the well, and the plate is incubated with shaking for 10 minutes at 25° C. The reaction is started by adding [^32 P]ATP, and the plate is incubated at 25° C. for 10 minutes. The reaction is terminated by addition of 0.1 mL of 20% trichloroacetic acid (TCA). The plate is kept at 4° C. for at least 15 minutes to allow the substrate to precipitate. The wells are then washed five times with 0.2 mL of 10% TCA, and ^32 P incorporation is determined with a Wallac beta plate counter.

HT-29 cells = assay: Human Colon Carcinoma Clonogenic Assay, HT-29; type: cell-based; conditions: HT-29, 2 days with drug, colonies after approximately 2 weeks
Description: Human Colon Carcinoma Clonozenic Assay. Human colon carcinoma cells are seeded into 6 well plates in volumes of 3 mL and allowed to incubate overnight (37° C., 5% CO2, 95% air). SW-620 cells are seeded at 7×10^5 per well; HCT-8 cells are seeded at 5×10^5 per well; HT-29 cells are seeded at 4×10^5 cells per well. Serially diluted drugs are prepared at 200 times the final concentration, and 15 μL are added to each of duplicate wells. Cells are incubated with drug for 2 days, rinsed once with 1 mL of trypsin+EDTA, and then trypsinized with the same trypsin solution. After trituration and centrifugation at 750×g for 3 minutes, the cells are suspended in serum-free growth medium and counted using an electronic particle counter. An agarose mixture appropriate for the cloning of each cell line is made using 10% fetal bovine serum in growth medium (SW-620-0.35% agarose, HCT-8 and HT-29-0.4% agarose). […] One; milliliter of each of these cell suspensions is added to duplicate wells of 6 well plates previously prepared with 10% serum/growth medium/1% agarose plugs. The cells in these plates are incubated for approximately 2 weeks in the incubator and stained with 1 mL per well of 1 mg/mL iodonitrotetrazolium violet stain. The visible colonies are counted with an electronic optical colony counter and the clonogenicity of treated cells calculated in comparison to untreated control cells.

T2 sequence (P00533 25-1210): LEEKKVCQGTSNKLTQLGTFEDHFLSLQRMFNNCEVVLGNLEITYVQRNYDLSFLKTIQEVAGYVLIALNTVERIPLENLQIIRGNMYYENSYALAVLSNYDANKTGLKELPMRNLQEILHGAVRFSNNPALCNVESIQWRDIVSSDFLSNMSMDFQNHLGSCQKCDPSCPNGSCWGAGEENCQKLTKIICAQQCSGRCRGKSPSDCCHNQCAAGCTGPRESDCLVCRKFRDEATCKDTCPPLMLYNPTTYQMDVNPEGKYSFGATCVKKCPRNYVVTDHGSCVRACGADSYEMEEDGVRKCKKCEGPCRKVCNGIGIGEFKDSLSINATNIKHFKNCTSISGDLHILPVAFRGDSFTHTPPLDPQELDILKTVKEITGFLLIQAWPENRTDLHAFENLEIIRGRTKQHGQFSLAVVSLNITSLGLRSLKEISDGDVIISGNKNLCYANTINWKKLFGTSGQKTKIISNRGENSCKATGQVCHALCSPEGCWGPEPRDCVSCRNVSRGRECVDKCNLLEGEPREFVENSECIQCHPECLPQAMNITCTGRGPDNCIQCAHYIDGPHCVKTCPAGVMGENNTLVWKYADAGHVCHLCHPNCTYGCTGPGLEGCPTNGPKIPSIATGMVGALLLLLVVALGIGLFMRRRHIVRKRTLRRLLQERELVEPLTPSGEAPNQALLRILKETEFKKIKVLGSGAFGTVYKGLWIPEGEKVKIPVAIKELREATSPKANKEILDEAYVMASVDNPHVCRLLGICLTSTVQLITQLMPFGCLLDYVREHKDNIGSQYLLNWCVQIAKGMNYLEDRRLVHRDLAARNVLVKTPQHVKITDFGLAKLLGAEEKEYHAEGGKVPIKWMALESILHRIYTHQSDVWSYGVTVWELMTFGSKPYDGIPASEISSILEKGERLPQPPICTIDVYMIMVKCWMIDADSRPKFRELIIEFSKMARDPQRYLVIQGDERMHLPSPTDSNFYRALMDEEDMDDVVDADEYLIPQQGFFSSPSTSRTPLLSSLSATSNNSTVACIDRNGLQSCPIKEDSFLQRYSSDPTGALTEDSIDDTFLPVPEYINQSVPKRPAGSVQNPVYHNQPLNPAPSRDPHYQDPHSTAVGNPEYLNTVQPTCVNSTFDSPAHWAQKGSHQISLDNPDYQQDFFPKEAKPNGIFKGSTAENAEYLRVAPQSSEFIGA
T1 sequence (P12931 whole entry, species assumed): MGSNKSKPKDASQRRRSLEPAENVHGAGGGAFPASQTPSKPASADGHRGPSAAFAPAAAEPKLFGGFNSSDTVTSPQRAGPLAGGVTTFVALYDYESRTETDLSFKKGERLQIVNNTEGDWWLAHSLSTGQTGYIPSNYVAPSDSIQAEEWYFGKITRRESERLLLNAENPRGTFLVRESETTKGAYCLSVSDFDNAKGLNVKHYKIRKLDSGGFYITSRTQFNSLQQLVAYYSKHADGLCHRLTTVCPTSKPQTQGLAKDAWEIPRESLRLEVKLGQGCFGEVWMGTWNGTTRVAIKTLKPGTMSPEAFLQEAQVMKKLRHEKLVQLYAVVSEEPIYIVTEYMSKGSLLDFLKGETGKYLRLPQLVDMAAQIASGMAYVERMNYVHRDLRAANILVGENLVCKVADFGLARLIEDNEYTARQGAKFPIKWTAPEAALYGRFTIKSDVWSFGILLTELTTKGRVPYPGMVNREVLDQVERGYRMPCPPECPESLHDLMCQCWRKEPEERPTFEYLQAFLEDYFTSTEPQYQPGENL

Row | SMILES | IC50 (c-Src) [nM] | IC50 [1] [nM] | IC50 (HT-29 cells) [nM]
1 | CN1CCN(CCCNc2cc3c(cn2)cc(-c2c(Cl)cccc2Cl)c(=O)n3C)CC1 [Example H, 3-(2,6-dichlorophenyl)-1-methyl-7-[3-(4-methylpiperazin-1-yl)propylamino]-1H-[1,6]naphthyridin-2-one] | 60 | 3200 | > 5000
2 | CN1CCN(CCOc2ccc(Nc3cc4c(cn3)cc(-c3c(Cl)cccc3Cl)c(=O)n4C)cc2)CC1 [Example S, 3-(2,6-dichlorophenyl)-1-methyl-7-[(4-(2-(4-methylpiperazin-1-yl)ethoxy)phenyl)amino]-1H-[1,6]naphthyridin-2-one] | 20 | – | –
3 | CCN(CC)CCOc1ccc(Nc2cc3c(cn2)cc(-c2c(Cl)cccc2Cl)c(=O)n3C)cc1 [Example P, 3-(2,6-dichlorophenyl)-7-[(4-(2-(diethylamino)ethoxy)phenyl)amino]-1-methyl-1H-[1,6]naphthyridin-2-one] | 80 | 590 | > 5000
4 | CCN(CC)CCCCNc1cc2c(cn1)cc(-c1c(Cl)cccc1Cl)c(=O)n2C [Example F, 3-(2,6-dichlorophenyl)-7-[4-(diethylamino)butylamino]-1-methyl-1H-[1,6]naphthyridin-2-one] | 40 | 3800 | > 5000
